Like-named read-outs stand apart in the source and are kept apart here. Values belong to the molecule of their own block, whether it stands above or below them.
Key:
[1] = target: T1, VC1:IIC2 (UniProt P26769+P30803); conditions: cited from earlier work
[2] = target: ACs 1, 2 and 5; conditions: read-out: Ki for ACs 1, 2 and 5; TNP-nucleotides; cited from earlier work
[3] = target: T1, VC1:IIC2; assay: Inhibition of the catalytic activity of purified VC1:IIC2; format: biochemical, mammalian
[4] = target: T2, AC5 (Canis lupus familiaris, UniProt P30803); assay: AC activity assay in Sf9 membranes expressing recombinant AC5; format: biochemical, mammalian; conditions: for Potency difference AC5 versus AC2: comparison of Ki at AC5 versus AC2
T2 sequence (P30803 whole entry): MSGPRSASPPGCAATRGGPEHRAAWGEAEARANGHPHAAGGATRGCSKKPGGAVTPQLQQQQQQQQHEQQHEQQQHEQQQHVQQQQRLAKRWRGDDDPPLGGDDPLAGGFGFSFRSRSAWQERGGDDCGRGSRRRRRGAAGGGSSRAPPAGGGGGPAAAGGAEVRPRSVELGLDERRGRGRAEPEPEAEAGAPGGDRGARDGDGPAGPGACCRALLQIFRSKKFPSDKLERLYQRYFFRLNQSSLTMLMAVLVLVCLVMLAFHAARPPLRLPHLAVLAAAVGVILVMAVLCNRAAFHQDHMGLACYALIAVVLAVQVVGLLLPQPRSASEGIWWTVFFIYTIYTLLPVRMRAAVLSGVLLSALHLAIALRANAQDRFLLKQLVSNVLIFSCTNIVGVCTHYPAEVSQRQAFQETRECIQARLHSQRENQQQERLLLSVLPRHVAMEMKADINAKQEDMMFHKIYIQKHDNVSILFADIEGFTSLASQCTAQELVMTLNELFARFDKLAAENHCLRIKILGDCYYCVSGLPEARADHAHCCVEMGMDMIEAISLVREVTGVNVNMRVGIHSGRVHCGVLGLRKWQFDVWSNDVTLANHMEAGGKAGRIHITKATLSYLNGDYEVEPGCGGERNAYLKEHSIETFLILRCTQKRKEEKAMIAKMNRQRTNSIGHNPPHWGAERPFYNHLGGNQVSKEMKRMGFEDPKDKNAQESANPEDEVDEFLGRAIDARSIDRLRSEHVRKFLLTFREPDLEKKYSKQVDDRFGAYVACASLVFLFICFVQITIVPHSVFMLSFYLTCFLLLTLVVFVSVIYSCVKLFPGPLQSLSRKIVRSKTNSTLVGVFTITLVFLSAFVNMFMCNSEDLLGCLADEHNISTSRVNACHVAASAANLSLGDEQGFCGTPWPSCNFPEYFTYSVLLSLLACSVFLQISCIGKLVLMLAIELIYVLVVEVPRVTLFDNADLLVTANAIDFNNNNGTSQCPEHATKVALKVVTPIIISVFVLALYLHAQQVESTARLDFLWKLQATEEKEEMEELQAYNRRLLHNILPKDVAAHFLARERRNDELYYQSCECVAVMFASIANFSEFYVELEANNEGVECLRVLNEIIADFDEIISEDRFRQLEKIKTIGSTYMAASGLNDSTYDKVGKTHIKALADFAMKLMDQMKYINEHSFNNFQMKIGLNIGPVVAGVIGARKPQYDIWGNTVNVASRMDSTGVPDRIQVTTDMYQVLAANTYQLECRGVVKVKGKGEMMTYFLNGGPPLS

[5] = target: T3, AC1 (Bos taurus, UniProt P19754); assay: AC activity assay in Sf9 membranes expressing recombinant AC1; format: biochemical, mammalian
T3 sequence (P19754 whole entry): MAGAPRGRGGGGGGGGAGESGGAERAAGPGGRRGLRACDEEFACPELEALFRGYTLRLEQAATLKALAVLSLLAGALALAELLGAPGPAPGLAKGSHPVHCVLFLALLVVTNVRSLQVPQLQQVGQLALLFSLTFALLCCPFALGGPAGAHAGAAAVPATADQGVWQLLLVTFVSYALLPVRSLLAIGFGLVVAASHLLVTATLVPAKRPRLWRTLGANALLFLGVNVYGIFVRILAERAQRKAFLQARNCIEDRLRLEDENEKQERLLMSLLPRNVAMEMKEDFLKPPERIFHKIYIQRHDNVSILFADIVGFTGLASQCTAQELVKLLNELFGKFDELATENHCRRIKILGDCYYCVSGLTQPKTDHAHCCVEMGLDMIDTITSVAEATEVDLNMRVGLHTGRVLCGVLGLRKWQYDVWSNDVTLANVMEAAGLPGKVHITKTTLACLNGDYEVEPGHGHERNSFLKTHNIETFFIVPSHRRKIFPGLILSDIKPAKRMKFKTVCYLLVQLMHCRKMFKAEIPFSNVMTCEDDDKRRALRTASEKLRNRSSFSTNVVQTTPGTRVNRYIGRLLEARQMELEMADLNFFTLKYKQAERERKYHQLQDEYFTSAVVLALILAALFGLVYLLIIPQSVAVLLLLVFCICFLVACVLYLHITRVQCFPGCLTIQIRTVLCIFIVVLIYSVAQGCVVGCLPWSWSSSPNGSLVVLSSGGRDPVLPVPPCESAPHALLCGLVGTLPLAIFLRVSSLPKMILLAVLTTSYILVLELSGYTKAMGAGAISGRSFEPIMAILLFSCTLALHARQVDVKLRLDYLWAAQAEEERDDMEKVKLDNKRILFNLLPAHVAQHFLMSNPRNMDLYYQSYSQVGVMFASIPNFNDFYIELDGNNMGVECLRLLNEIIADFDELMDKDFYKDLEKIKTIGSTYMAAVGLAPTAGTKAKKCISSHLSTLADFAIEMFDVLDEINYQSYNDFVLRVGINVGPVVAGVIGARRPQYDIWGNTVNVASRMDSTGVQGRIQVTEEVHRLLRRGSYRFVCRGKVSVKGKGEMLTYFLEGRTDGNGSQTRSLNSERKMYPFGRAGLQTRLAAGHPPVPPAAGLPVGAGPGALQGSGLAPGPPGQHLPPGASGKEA

[6] = target: T4, AC2 (Rattus norvegicus, UniProt P26769); assay: AC activity assay in Sf9 membranes expressing recombinant AC2; format: biochemical, mammalian
T4 sequence (P26769 whole entry): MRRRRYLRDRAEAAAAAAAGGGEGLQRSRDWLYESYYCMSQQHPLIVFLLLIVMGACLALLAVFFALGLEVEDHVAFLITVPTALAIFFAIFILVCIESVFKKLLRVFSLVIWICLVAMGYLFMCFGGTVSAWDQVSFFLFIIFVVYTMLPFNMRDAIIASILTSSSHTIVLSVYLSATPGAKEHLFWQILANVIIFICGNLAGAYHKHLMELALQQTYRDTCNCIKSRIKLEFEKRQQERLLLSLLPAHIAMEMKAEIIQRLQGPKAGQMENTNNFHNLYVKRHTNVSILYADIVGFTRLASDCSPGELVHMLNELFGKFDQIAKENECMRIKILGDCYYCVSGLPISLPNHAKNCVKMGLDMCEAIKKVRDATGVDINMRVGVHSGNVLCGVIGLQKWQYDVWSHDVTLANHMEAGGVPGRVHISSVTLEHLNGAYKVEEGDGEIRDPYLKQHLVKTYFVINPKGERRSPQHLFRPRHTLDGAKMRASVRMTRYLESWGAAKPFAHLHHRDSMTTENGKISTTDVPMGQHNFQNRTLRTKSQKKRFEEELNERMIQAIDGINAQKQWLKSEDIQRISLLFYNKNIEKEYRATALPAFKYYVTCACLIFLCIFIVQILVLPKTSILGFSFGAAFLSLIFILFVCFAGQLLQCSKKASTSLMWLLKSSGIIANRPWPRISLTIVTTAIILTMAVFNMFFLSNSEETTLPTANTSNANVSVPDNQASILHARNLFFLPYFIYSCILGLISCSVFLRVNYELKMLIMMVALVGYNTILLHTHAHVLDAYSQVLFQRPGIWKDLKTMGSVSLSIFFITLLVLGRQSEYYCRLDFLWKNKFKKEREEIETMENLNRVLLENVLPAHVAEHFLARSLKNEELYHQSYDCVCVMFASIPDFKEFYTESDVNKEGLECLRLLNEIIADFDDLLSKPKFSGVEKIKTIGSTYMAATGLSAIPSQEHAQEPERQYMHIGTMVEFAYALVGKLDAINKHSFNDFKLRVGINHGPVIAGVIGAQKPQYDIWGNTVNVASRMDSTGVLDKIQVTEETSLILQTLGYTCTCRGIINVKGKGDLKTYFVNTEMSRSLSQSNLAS

[7] = target: T2, AC5; conditions: read-out: AC5 Ki; Sf9 membranes, 5 mM MnCl2, 100 μM FS; mean ± SD; cited from earlier work
[8] = target: T4, AC2; conditions: read-out: AC2 Ki; Sf9 membranes, 5 mM MnCl2, 100 μM FS; mean ± SD; cited from earlier work
[9] = target: T3, AC1; conditions: read-out: AC1 Ki; Sf9 membranes, 5 mM MnCl2, 100 μM FS; mean ± SD; cited from earlier work
[10] = read-out: Ki for VC1:IIC2, TNP-nucleotides
[11] = VC1:IIC2 Mn2+ + FS + Gsα-GTPγS Ki, maximally stimulated: 10 mM MnCl2, 100 μM FS, 100 μM ATP, mean ± SD
[12] = read-out: VC1:IIC2 Mn2+ + FS + Gsα-GTPγS Ki, maximally stimulated: 10 mM MnCl2, 100 μM FS, 100 μM ATP, mean ± SD
[13] = read-out: AC5 Ki, Sf9 membranes, 5 mM MnCl2, 100 μM FS, mean ± SD
[14] = read-out: AC1 Ki, Sf9 membranes, 5 mM MnCl2, 100 μM FS, mean ± SD
[15] = read-out: AC2 Ki, Sf9 membranes, 5 mM MnCl2, 100 μM FS, mean ± SD
[16] = read-out: VC1:IIC2 Mn2+ + FS + Gsα-GTPγS Ki, maximally stimulated: 10 mM MnCl2, 100 μM FS, Gsα-GTPγS, mean ± SD

T1 sequence (P30803 398-765 limits assumed): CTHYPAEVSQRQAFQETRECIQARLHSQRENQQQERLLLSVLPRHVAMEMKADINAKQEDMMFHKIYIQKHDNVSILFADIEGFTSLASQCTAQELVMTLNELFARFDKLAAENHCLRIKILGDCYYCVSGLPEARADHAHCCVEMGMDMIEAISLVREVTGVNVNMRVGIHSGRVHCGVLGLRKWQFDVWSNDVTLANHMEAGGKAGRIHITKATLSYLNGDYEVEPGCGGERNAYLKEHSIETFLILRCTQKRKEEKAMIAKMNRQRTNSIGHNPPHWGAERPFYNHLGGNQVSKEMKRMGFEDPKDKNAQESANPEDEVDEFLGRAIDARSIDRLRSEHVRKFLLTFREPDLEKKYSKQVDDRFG
T1 sequence (P26769 821-1090 limits assumed): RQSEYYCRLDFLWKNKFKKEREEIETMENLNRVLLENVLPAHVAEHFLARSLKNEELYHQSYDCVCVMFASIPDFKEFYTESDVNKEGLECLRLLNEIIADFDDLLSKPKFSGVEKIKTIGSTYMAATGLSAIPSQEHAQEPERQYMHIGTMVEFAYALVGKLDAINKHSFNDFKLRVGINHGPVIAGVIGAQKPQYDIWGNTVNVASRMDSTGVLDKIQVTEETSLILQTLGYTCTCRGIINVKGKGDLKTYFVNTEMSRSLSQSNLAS
T1 sequence (P04896 whole entry partner): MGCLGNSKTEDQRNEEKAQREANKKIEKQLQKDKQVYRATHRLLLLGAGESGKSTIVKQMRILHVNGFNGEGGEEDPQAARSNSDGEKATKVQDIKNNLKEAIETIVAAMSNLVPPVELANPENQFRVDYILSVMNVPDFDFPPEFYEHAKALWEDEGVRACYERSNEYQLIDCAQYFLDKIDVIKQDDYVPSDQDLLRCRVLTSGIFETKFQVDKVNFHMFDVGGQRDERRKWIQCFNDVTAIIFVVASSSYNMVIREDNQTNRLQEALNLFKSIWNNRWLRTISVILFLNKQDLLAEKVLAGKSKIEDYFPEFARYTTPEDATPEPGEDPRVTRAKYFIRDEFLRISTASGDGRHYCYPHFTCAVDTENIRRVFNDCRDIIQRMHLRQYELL

Molecule: 2’,3’-O-(2,4,6-trinitrophenyl)-UTP [reference compound]
Ki [1, 10]: 100 to 300 nM | Ki [2]: 10 to 100 nM

Ki [3, 11]: 90 ± 2.2 nM | Ki [4]: 65 ± 5 nM | Ki [5]: 470 ± 20 nM | Ki [6]: 540 ± 20 nM
Molecule: CNc1ccccc1C(=O)O[C@@H]1C[C@@H](COP(=O)(O)OP(=O)(O)OP(=O)(O)O)O[C@H]1n1cnc2c(N)ncnc21 [compound 7, 3’-deoxy-2’-O-(N-methylanthraniloyl)-adenosine 5’-triphosphate]

Ki [3, 12]: 10 ± 1.7 nM
Molecule: 2’,3’-O-anthraniloyl-guanosine 5’-triphosphate [compound 13]

Ki [3, 12]: 6.1 ± 1.3 nM | Potency difference AC5 versus AC2 [4]: > 10 fold | Ki [4, 13]: 32 ± 2 nM | Ki [5, 14]: 46 ± 4 nM | Ki [6, 15]: 460 ± 60 nM
Molecule: 2’,3’-O-(N-methylanthraniloyl)-uridine 5’-triphosphate [compound 11]

Ki [3, 12]: 24 ± 4.1 nM | Ki [4, 13]: 34 ± 8 nM | Ki [5, 14]: 63 ± 17 nM | Ki [6, 15]: 370 ± 81 nM
Molecule: 2’,3’-O-(N-methylanthraniloyl)-guanosine 5’-[γ-thio]triphosphate [compound 4]

Ki [4]: 410 ± 35 nM | Ki [5]: 270 ± 30 nM | Ki [6]: 1300 ± 210 nM
Molecule: CNc1ccccc1C(=O)O[C@H]1C[C@H](n2cnc3c(=O)[nH]c(N)nc32)O[C@@H]1COP(=O)(O)OP(=O)(O)OP(=O)(O)O [compound 2, 2’-deoxy-3’-O-(N-methylanthraniloyl)-guanosine 5’-triphosphate]

Ki [5, 14]: 860 ± 10 nM | Ki [6, 15]: 2900 nM
Molecule: 2’,3’-O-anthraniloyl-adenosine 5’-diphosphate [compound 15]

Ki [3, 11]: 350 ± 43 nM | Ki [4]: 1800 nM | Ki [5]: 1800 nM | Ki [6]: 8700 nM
Molecule: CNc1ccccc1C(=O)O[C@@H]1C[C@@H](COP(=O)(O)OP(=O)(O)OP(=O)(O)O)O[C@H]1n1cnc2c(=O)[nH]c(N)nc21 [compound 3, 3’-deoxy-2’-O-(N-methylanthraniloyl)-guanosine 5’-triphosphate]

Ki [3, 12]: 9.2 ± 1.5 nM
Molecule: 2’(3’)-O-(N-methylanthraniloyl)-cytidine 5’-triphosphate [compound 12]
Ki [7]: 150 ± 30 nM | Ki [8]: 690 ± 20 nM | Ki [9]: 150 ± 30 nM

Ki [5, 14]: 130 ± 20 nM | Ki [6, 15]: 640 ± 70 nM
Molecule: 2’,3’-O-anthraniloyl-adenosine 5’-triphosphate [compound 14]

Molecule: 2’,3’-O-(2,4,6-trinitrophenyl)-CTP [reference compound]
Ki [1, 10]: 100 to 300 nM | Ki [2]: 10 to 100 nM

Ki [4, 13]: 1300 nM | Ki [5, 14]: 1100 nM | Ki [6, 15]: 3000 nM
Molecule: 2’,3’-O-(N-methylanthraniloyl)-xanthosine 5’-triphosphate [compound 10]
Ki [1, 16]: 1200 nM

Ki [3, 11]: 190 ± 3.4 nM | Ki [4]: 360 ± 54 nM | Potency difference AC5 versus AC2 [4]: > 10 fold | Ki [5]: 320 ± 19 nM | Ki [6]: 4800 nM
Molecule: CNc1ccccc1C(=O)O[C@H]1C[C@H](n2cnc3c(N)ncnc32)O[C@@H]1COP(=O)(O)OP(=O)(O)OP(=O)(O)O [compound 6, 2’-deoxy-3’-O-(N-methylanthraniloyl)-adenosine 5’-triphosphate]

Potency difference AC5 versus AC2 [4]: > 10 fold | Ki [4, 13]: 53 ± 12 nM | Ki [5, 14]: 90 ± 18 nM | Ki [6, 15]: 610 ± 70 nM
Molecule: 2’,3’-O-(N-methylanthraniloyl)-guanosine 5’-triphosphate [compound 1]
Ki [1, 16]: 18 ± 6 nM

Molecule: 2’,3’-O-(N-methylanthraniloyl)-adenosine 5’-triphosphate [compound 5]
Ki [9]: 150 ± 40 nM

— article PMC3138873 (Biochemical pharmacology, 2011)
